Measured values published in ChEMBL document CHEMBL5154712, “Activators of the Anticipatory Unfolded Protein Response with Enhanced Selectivity for Estrogen Receptor Positive Breast Cancer” (J Med Chem, 2022).
Activity calls are given as the source filed them. No cut-off for these calls is given here.

How the values were obtained:
[1] = system: MCF7; test: Anticancer activity against human MCF7 cells assessed as cell growth inhibition incubated for 24 hrs by alamar blue assay; assay type: functional, cell-based; details: MCF7, 24 h
[2] = system: MCF7; test: Anticancer activity against ERalpha positive human MCF7 cells assessed as cell growth inhibition incubated for 72 hrs by alamar blue assay; assay type: functional, cell-based; details: MCF7, 72 h
[3] = system: MDA-MB-231; test: Anticancer activity against ERalpha negative human MDA-MB-231 cells assessed as cell growth inhibition incubated for 24 hrs by alamar blue assay; assay type: functional, cell-based; details: MDA-MB-231, 24 h
[4] = system: MDA-MB-231; test: Anticancer activity against ERalpha negative human MDA-MB-231 cells assessed as cell growth inhibition incubated for 72 hrs by alamar blue assay; assay type: functional, cell-based; details: MDA-MB-231, 72 h
[5] = system: HCT-116; test: Anticancer activity against ERalpha negative human HCT-116 cells assessed as cell growth inhibition incubated for 24 hrs by alamar blue assay; assay type: functional, cell-based; details: HCT-116, 24 h
[6] = system: HCT-116; test: Anticancer activity against ERalpha negative human HCT-116 cells assessed as cell growth inhibition incubated for 72 hrs by alamar blue assay; assay type: functional, cell-based; details: HCT-116, 72 h
[7] = system: HT-29; test: Anticancer activity against ERalpha negative human HT-29 cells assessed as cell growth inhibition incubated for 24 hrs by alamar blue assay; assay type: functional, cell-based; details: HT-29, 24 h
[8] = system: HT-29; test: Anticancer activity against ERalpha negative human HT-29 cells assessed as cell growth inhibition incubated for 72 hrs by alamar blue assay; assay type: functional, cell-based; details: HT-29, 72 h
[9] = Selectivity ratio of IC50 for human MDA-MB-231 cells to IC50 for human MCF7 cells; assay type: functional
[10] = Selectivity ratio of IC50 for human HCT-116 cells to IC50 for human MCF7 cells; assay type: functional
[11] = Selectivity ratio of IC50 for human HT-29 cells to IC50 for human MCF7 cells; assay type: functional
[12] = Stability of the compound in simulated gastric fluid assessed as compound remaining measured after 120 mins by LC-MS/MS; assay type: ADME; details: read-out: Stability
[13] = system: T47D; test: Anticancer activity against human T47D cells harbouring ERalphaY537S mutant assessed as cell growth inhibition incubated for 24 hrs by alamar blue assay; assay type: functional, cell-based
[14] = system: T47D; test: Anticancer activity against human T47D cells harbouring ERalphaD538G mutant assessed as cell growth inhibition incubated for 24 hrs by alamar blue assay; assay type: functional, cell-based
[15] = system: MCF7; test: Anticancer activity against human MCF7 cells assessed as reduction in cell viability incubated for 24 hrs in presence of 10% CD-FBS by alamar blue assay; assay type: functional, cell-based
[16] = system: T47D; test: Anticancer activity against ERalpha positive human T47D cells assessed as cell growth inhibition incubated for 24 hrs by alamar blue assay; assay type: functional, cell-based
[17] = system: MDA-MB-436; test: Anticancer activity against ERalpha negative human MDA-MB-436 cells assessed as cell growth inhibition incubated for 24 hrs by alamar blue assay; assay type: functional, cell-based; details: MDA-MB-436, 24 h
[18] = system: MDA-MB-231; test: Anticancer activity against ERalpha negative human MDA-MB-231 cells assessed as cell growth inhibition incubated for 168 hrs by alamar blue assay; assay type: functional, cell-based; details: MDA-MB-231, 168 h
[19] = system: MDA-MB-436; test: Anticancer activity against ERalpha negative human MDA-MB-436 cells assessed as cell growth inhibition incubated for 72 hrs by alamar blue assay; assay type: functional, cell-based; details: MDA-MB-436, 72 h
[20] = system: HCT-116; test: Induction of ER stress in human HCT-116 cells assessed as increase in phospho-EIF2alpha expression at 0.1 to 10 uM measured after 24 to 48 hrs by Western blot analysis; assay type: functional, cell-based; details: dose 0.1-10 µM, time 24-48 hrs
[21] = Cmax in CD-1 mouse at 20 mg/kg, iv by LC-MS/MS analysis; assay type: ADME, organism-based; parameters: dose 20 mg/kg, route iv; details: mouse, in vivo
[22] = Oral bioavailability in mouse; assay type: ADME, organism-based; details: in vivo
[23] = Half life in mouse; assay type: ADME, organism-based; details: in vivo
[24] = AUC in CD-1 mouse at 20 mg/kg, iv by LC-MS/MS analysis; assay type: ADME, organism-based; parameters: dose 20 mg/kg, route iv; details: mouse, in vivo
[25] = Half life in CD-1 mouse at 20 mg/kg, iv by LC-MS/MS analysis; assay type: ADME, organism-based; details: mouse, in vivo, iv, 20 mg/kg
[26] = MRT in CD-1 mouse at 20 mg/kg, iv by LC-MS/MS analysis; assay type: ADME, organism-based; details: mouse, in vivo, iv, 20 mg/kg
[27] = Volume of distribution at steady state in CD-1 mouse at 20 mg/kg, iv by LC-MS/MS analysis; assay type: ADME, organism-based; details: mouse, in vivo, iv, 20 mg/kg
[28] = Toxicity in po dosed CD-1 mouse assessed as maximum tolerated dose administered as single dose; assay type: organism-based; details: in vivo
[29] = Toxicity in iv dosed Sprague-Dawley rat assessed as maximum tolerated dose administered as single dose; assay type: organism-based; details: in vivo
[30] = system: MCF7; test: Antitumor activity against human MCF7 cells xenografted in athymic nude mouse assessed as reduction in tumor growth at 5 mg/kg, iv administered once a week for three doses administered for 14 days; assay type: functional, organism-based; details: time 14.0 day
[31] = Toxicity in athymic nude mouse xenografted with human MCF7 cells assessed as change in body weight at 5 mg/kg, iv administered once a week for three doses administered for 14 days; assay type: organism-based; details: in vivo, 336 h, time 14 day
[32] = system: MCF7; test: Anticancer activity against human MCF7 cells assessed as reduction in cell viability incubated for 24 hrs in presence of 10% CD-FBS and 17-beta-estradiol by alamar blue assay; assay type: functional, cell-based
[33] = system: HCT-116; test: Induction of ER stress in human HCT-116 cells assessed as increase in ATF6alpha-p90 cleavage at 0.1 to 10 uM measured after 24 to 48 hrs by Western blot analysis; assay type: functional, cell-based; details: dose 0.1-10 µM, time 24-48 hrs

## O=C1Nc2c(C(F)(F)F)cccc2[C@@]1(c1ccc(O)cc1)C1CCC(F)(F)CC1
[1]
  IC50: > 1000 nM

## O=C1Nc2c(C(F)(F)F)cccc2C1(c1ccc(O)cc1)N1CCC(F)(F)CC1 (configuration not stated)
[1]
  IC50: 35 nM

## O=C1Nc2c(C(F)(F)F)cccc2[C@]1(c1ccc(OC(F)(F)F)cc1)c1ccc(O)c(O)c1
[1]
  IC50: 24 nM

## O=C1Nc2c(C(F)(F)F)cccc2C1(c1ccc(OC(F)(F)F)cc1)c1ccc(O)c(F)c1 (configuration not stated)
[1]
  IC50: 33 nM

## O=C1Nc2c(C(F)(F)F)cccc2C1(c1ccc(O)cc1)N1CCCCCC1 (configuration not stated)
[1]
  IC50: > 1000 nM

## O=C1Nc2c(C(F)(F)F)cccc2[C@@]1(c1ccc(O)cc1)N1CC(F)(F)C(F)(F)C1
[1]
  IC50: 5 nM
[2]
  IC50: 4 nM
[3]
  IC50: 22000 nM
[4]
  IC50: 14000 nM
[5]
  IC50: 24000 nM
[6]
  IC50: 15000 nM
[7]
  IC50: 25000 nM
[8]
  IC50: 15000 nM
[9]
  Ratio IC50: 3500
[10]
  Ratio IC50: 3800
[11]
  Ratio IC50: 3800
[12]
  remaining at 2 h: 27%

## O=C1Nc2c(C(F)(F)F)cccc2C1(c1ccc(O)cc1)N1CCC(OC(F)(F)F)CC1 (configuration not stated)
[1]
  IC50: 135 nM

## O=C1Nc2c(C(F)(F)F)cccc2C1(c1ccc(OC(F)(F)F)cc1)c1ccc(O)c(O)c1 (configuration not stated)
[1]
  IC50: 49 nM

## O=C1Nc2c(C(F)(F)F)cccc2[C@@]1(c1ccc(O)cc1)N1CCC(F)(F)C1
[1]
  IC50: 17 nM
[3]
  IC50: 51000 nM
[4]
  IC50: 32000 nM
[5]
  IC50: 45000 nM
[6]
  IC50: 20000 nM
[7]
  IC50: 35000 nM
[8]
  IC50: 30000 nM
[9]
  Ratio IC50: 1500
[10]
  Ratio IC50: 900
[11]
  Ratio IC50: 1400
[12]
  remaining at 2 h: 20%

## O=C1Nc2c(C(F)(F)F)cccc2C1(c1ccc(O)cc1)N1CCC(O)CC1 (configuration not stated)
[1]
  IC50: > 1000 nM

## O=C1Nc2c(C(F)(F)F)cccc2C1(c1ccc(O)cc1)c1ccc(OC(F)(F)F)cc1 (configuration not stated)
[13]
  IC50: 10 nM
[1]
  IC50: 20 nM
[14]
  IC50: 15 nM
[15]
  Activity: Active
[16]
  IC50: 20 nM
[17]
  IC50: 22000 nM
[3]
  IC50: 23000 nM
[4]
  IC50: 8000 nM
[18]
  IC50: 6000 nM
[19]
  IC50: 14000 nM
[5]
  IC50: 11000 nM
[6]
  IC50: 260 nM
[7]
  IC50: 210 nM
[8]
  IC50: 250 nM
[20]
  Activity: Active
[21]
  Cmax: 7700 ng/mL
[22]
  bioavailability: 47%
[23]
  half-life: > 2 h
[24]
  AUC: 10100 ng·h/mL
[25]
  t1/2: 0.917 h
[26]
  MRT: 5.1 h
[27]
  Vdss: 10.1 L/kg
[28]
  MTD: > 150 mg/kg
[29]
  MTD: 10 mg/kg
[30]
  Activity: Active
[31]
  Activity: Non-Toxic
[32]
  Activity: Active
[12]
  remaining at 2 h: 93%
[33]
  Activity: Active

## O=C1Nc2c(C(F)(F)F)cccc2C1(c1ccc(OC(F)(F)F)cc1)c1cc(F)c(O)c(F)c1 (configuration not stated)
[1]
  IC50: > 1000 nM

## O=C1Nc2c(C(F)(F)F)cccc2[C@@]1(c1ccc(O)cc1)N1CC(F)(F)C1
[2]
  IC50: 117 nM

## O=C1Nc2c(C(F)(F)F)cccc2[C@]1(c1ccc(O)cc1)N1CC(F)(F)C(F)(F)C1
[1]
  IC50: > 1000 nM
[15]; MCF7, 24 h
  IC50: > 1000 nM
[2]
  IC50: > 1000 nM

## CC(C)c1cc(C2(c3ccc(OC(F)(F)F)cc3)C(=O)Nc3c(C(F)(F)F)cccc32)cc(C(C)C)c1O (configuration not stated)
[1]
  IC50: > 1000 nM

## O=C1Nc2c(C(F)(F)F)cccc2[C@@]1(c1ccc(O)cc1)N1CCC(F)CC1
[1]
  IC50: > 1000 nM
[2]
  IC50: 147 nM

## CC1CN(C2(c3ccc(O)cc3)C(=O)Nc3c(C(F)(F)F)cccc32)CCC1(F)F (configuration not stated)
[1]
  IC50: 70 nM

## Cc1cc(C2(c3ccc(OC(F)(F)F)cc3)C(=O)Nc3c(C(F)(F)F)cccc32)ccc1O (configuration not stated)
[1]
  IC50: > 1000 nM

## O=C1Nc2c(C(F)(F)F)cccc2C1(c1ccc(O)cc1)N1CCOCC1 (configuration not stated)
[1]
  IC50: > 1000 nM

## O=C1Nc2c(C(F)(F)F)cccc2C1(c1ccc(OC(F)(F)F)cc1)c1ccc(OC(F)(F)F)cc1
[1]
  IC50: > 1000 nM

## O=C1Nc2c(C(F)(F)F)cccc2[C@@]1(c1ccc(O)cc1)N1CCCC(F)(F)C1
[1]
  IC50: 39 nM
[2]
  IC50: 33 nM
[3]
  IC50: 49000 nM
[4]
  IC50: 22000 nM
[5]
  IC50: 38000 nM
[6]
  IC50: 21000 nM
[7]
  IC50: 29000 nM
[8]
  IC50: 25000 nM
[9]
  Ratio IC50: 700
[10]
  Ratio IC50: 600
[11]
  Ratio IC50: 800
[12]
  remaining at 2 h: 0%

## Cc1cc(C2(c3ccc(OC(F)(F)F)cc3)C(=O)Nc3c(C(F)(F)F)cccc32)cc(C)c1O (configuration not stated)
[1]
  IC50: > 1000 nM

## O=C1Nc2c(C(F)(F)F)cccc2C1(c1ccc(OC(F)(F)F)cc1)c1ccc(O)cc1F (configuration not stated)
[1]
  IC50: 177 nM

## O=C1Nc2c(C(F)(F)F)cccc2C1(c1ccc(O)cc1)N1CCCCC1 (configuration not stated)
[1]
  IC50: > 1000 nM
